Data published in ChEMBL document CHEMBL4251586, “Design, synthesis and evaluation of an anthraquinone derivative conjugated to myelin basic protein immunodominant (MBP85-99) epitope: Towards selective immunosuppression” (Eur J Med Chem, 2018).

Key:
HEK293 = test: Cytotoxicity against HEK293 cells after 48 hrs by MTT assay; format: cell-based, Homo sapiens
[1] = Drug internalization in HEK293 cells at 10 uM after 30 to 60 mins by inverted fluorescence microscopy; format: ADME, cell-based; conditions: human, hek293, 10 µM
Jurkat = test: Induction of apoptosis in human Jurkat T cells assessed as downregulation of Bcl2 expression at 10 uM after 48 hrs by Western blot analysis; format: functional

Row | Drug uptake [1] | SMILES | IC50 (HEK293; Homo sapiens, HEK293, 48 h) [µM] | Activity (HEK293; human, hek293, 48 h) | Activity (Jurkat) [%]
1 | Active | NCCCCNc1ccc(O)c2c1C(=O)c1ccccc1C2=O.O=C(O)C(F)(F)F | 9.4 | Dose-dependent effect | 
2 |  | O=C(CS)NCCCCNc1ccc(O)c2c1C(=O)c1ccccc1C2=O |  |  | 40
3 |  | O=C1c2c(O)ccc(O)c2C(=O)c2c(NCCNCCO)ccc(NCCNCCO)c21 [MITOXANTRONE] |  |  | 50
